# Measurements published in publication PMC6437697 (Journal of Medicinal Chemistry, 2019).
# Legend:
# Assay in all cases: KINOMEscan
# Type in all cases: binding
# HASPIN = target: T1, HASPIN (Homo sapiens, UniProt Q8TF76); conditions: read-out: % control activity remaining
# T1 construct: purchased Eurofins DiscoverX KINOMEscan
# T1 sequence (Q8TF76 1-798): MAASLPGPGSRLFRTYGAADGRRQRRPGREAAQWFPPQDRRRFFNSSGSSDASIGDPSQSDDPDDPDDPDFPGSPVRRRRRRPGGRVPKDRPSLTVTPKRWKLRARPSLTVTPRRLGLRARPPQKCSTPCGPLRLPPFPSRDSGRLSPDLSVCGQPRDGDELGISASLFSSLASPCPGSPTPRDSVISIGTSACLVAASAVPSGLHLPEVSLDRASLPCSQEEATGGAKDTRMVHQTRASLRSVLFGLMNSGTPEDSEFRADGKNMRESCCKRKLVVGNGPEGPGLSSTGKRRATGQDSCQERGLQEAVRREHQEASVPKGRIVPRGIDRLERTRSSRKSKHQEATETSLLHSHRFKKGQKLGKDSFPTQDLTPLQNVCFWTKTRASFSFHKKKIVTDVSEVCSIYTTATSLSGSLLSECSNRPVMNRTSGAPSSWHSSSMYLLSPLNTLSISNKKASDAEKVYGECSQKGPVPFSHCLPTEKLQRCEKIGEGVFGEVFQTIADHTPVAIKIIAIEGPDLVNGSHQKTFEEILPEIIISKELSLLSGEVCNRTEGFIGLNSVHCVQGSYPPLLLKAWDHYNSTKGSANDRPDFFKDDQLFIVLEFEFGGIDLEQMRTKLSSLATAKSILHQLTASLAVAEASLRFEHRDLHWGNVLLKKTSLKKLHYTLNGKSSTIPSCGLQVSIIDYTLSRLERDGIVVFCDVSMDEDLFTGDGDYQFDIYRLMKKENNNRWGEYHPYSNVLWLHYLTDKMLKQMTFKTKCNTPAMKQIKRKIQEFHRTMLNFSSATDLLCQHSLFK
# PCTK2 = target: T2, PCTK2 (Homo sapiens, UniProt Q00537); conditions: for remaining binding at 1 µM: read-out: % control activity remaining
# T2 construct: purchased Eurofins DiscoverX KINOMEscan
# HIPK2 = target: T3, HIPK2 (Homo sapiens, UniProt Q9H2X6); conditions: read-out: % control activity remaining
# T3 construct: purchased Eurofins DiscoverX KINOMEscan
# CAMK2B = target: T4, CAMK2B (Homo sapiens, UniProt Q13554); conditions: read-out: % control activity remaining
# T4 construct: purchased Eurofins DiscoverX KINOMEscan
# ANKK1 = target: T5, ANKK1 (Homo sapiens, UniProt Q8NFD2); conditions: read-out: % control activity remaining
# T5 construct: purchased Eurofins DiscoverX KINOMEscan
# T5 sequence (Q8NFD2 1-765): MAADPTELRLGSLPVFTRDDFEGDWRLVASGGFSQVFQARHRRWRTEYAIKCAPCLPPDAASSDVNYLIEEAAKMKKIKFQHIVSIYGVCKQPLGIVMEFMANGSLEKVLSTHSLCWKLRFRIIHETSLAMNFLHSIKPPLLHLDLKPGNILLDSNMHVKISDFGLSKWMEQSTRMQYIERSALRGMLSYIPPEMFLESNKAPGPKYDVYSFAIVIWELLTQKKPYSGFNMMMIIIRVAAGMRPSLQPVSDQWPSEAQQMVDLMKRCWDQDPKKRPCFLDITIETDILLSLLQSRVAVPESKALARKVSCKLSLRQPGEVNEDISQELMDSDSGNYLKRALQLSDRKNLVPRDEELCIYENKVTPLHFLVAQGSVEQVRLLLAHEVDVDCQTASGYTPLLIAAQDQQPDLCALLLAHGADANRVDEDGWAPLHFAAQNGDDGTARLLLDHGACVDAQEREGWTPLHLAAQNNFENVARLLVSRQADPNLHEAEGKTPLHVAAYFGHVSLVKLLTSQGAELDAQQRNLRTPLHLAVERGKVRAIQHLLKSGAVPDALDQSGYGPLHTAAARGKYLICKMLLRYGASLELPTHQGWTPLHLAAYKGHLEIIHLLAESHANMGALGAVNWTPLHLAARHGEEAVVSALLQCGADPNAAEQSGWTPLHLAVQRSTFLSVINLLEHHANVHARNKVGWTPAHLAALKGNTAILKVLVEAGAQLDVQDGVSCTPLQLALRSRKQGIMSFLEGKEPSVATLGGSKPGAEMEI
# CAMK2D = target: T6, CAMK2D (Homo sapiens, UniProt Q13557); conditions: read-out: % control activity remaining
# T6 construct: purchased Eurofins DiscoverX KINOMEscan
# CDKL5 = target: T7, CDKL5 (Homo sapiens, UniProt O76039); conditions: read-out: % control activity remaining
# T7 construct: purchased Eurofins DiscoverX KINOMEscan
# T7 sequence (O76039 1-960): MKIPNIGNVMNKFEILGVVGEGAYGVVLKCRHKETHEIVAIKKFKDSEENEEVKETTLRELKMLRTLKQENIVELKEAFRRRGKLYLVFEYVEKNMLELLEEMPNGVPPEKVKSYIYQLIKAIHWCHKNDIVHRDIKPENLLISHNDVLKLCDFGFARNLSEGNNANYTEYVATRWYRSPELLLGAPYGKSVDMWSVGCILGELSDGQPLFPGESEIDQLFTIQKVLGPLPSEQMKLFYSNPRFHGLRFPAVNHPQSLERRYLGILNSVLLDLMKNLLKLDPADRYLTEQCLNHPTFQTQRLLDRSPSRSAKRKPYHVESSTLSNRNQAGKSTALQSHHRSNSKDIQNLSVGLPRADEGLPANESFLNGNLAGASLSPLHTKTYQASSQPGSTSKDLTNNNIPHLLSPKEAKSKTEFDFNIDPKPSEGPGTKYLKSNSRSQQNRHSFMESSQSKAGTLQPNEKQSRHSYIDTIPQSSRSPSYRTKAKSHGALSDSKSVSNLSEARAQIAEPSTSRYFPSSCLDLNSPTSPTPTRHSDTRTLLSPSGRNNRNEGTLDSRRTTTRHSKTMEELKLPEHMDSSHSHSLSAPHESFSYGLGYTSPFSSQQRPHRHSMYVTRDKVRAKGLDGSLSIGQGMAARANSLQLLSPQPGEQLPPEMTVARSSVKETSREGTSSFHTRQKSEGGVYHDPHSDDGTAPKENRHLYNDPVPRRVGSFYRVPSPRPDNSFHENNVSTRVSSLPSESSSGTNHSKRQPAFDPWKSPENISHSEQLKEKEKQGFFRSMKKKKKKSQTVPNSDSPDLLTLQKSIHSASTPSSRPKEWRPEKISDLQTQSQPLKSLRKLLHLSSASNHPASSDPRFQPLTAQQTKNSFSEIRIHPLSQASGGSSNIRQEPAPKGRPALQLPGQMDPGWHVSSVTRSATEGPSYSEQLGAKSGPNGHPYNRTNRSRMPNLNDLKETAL
# T4 sequence (Q13554 whole entry): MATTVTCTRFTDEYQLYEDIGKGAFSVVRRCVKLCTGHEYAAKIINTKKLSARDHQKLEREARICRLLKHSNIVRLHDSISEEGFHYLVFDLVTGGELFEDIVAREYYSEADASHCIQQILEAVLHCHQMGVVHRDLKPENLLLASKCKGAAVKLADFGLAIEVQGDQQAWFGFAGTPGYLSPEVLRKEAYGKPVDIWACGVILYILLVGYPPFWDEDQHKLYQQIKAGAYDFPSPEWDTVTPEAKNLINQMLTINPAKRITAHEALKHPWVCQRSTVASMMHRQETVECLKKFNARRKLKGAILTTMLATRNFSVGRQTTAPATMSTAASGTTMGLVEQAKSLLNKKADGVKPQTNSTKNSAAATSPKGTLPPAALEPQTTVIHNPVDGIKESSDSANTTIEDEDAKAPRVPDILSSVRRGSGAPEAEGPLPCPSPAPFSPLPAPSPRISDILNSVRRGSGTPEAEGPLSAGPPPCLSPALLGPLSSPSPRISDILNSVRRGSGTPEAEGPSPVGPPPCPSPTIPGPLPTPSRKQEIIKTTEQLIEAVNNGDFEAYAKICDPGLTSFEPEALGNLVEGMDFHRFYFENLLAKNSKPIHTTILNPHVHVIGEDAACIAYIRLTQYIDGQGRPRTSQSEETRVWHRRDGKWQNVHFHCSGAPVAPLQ
# T2 sequence (Q00537 whole entry): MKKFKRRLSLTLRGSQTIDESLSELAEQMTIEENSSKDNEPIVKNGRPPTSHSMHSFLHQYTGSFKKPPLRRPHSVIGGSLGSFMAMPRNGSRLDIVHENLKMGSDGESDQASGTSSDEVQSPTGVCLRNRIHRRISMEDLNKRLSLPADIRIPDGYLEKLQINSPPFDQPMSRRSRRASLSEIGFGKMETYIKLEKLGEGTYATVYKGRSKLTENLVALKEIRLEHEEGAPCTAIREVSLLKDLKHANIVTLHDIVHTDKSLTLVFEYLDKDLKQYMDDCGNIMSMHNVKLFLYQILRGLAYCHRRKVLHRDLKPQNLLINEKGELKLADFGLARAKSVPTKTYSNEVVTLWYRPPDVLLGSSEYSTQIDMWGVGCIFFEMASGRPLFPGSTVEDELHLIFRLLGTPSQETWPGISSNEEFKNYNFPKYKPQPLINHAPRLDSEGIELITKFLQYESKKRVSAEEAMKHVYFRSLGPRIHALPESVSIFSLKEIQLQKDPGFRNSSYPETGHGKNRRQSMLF
# T3 sequence (Q9H2X6 whole entry): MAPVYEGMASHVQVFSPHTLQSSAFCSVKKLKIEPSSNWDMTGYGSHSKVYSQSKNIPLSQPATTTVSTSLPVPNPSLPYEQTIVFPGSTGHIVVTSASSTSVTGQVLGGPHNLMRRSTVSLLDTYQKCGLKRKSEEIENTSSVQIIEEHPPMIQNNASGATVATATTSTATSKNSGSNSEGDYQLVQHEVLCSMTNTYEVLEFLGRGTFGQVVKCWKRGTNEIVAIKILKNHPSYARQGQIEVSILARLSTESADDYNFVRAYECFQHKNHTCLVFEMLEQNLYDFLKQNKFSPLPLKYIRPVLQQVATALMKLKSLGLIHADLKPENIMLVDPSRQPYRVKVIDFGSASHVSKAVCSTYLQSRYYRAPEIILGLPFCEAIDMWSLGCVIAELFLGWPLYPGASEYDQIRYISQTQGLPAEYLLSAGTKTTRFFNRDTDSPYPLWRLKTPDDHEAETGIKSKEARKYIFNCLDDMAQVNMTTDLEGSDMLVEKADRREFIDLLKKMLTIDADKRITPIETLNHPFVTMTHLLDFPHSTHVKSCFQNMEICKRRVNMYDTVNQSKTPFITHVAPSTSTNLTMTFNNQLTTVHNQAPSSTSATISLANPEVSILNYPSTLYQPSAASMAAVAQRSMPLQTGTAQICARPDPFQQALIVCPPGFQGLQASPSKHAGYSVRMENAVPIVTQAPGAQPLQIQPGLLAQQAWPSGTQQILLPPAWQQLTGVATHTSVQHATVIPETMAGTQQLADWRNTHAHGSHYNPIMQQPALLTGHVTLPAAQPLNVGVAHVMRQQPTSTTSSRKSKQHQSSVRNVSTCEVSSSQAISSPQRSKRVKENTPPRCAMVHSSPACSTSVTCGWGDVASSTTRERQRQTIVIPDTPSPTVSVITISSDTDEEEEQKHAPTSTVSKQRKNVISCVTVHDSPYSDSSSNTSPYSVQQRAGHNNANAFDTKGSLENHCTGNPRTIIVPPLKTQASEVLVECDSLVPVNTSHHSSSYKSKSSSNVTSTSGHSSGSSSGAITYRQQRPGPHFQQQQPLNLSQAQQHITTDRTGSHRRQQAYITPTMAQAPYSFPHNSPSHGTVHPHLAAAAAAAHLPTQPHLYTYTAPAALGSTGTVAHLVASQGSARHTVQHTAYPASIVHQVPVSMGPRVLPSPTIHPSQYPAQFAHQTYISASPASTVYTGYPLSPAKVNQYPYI
# T6 sequence (Q13557 whole entry): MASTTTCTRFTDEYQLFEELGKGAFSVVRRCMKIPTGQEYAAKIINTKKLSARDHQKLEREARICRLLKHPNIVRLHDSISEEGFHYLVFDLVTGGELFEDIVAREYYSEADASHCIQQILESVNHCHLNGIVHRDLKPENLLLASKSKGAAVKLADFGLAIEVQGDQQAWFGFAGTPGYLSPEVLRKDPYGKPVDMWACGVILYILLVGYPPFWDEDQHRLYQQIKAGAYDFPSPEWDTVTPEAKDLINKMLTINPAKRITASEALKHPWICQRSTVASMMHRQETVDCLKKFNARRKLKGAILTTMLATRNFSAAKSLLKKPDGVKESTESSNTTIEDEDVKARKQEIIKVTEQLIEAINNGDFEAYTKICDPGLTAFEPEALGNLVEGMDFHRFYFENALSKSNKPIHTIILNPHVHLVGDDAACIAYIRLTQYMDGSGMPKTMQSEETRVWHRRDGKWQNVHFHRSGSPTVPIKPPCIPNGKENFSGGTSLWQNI
SMILES,remaining binding at 1 µM (HASPIN),remaining binding at 1 µM (PCTK2),remaining binding at 1 µM (HIPK2),remaining binding at 1 µM (CAMK2B),remaining binding at 1 µM (ANKK1),remaining binding at 1 µM (CAMK2D),remaining binding at 1 µM (CDKL5),"inhibition at 1 µM (PCTK2; read-out: Probe binding inhibited, 1 μM)"
"Clc1cc(NCC2CC2)c2ncc(-c3ccc4[nH]ncc4c3)n2n1 [compound 2, 6-Chloro-N-(cyclopropylmethyl)-3-(1H-indazol-5-yl)imidazo[1,2-b]pyridazin-8-amine]",21%,98%,62%,90%,75%,97%,100%,–
O=C(CN1CCOCC1)N[C@H]1CC[C@H](Nc2cc(Cl)nn3c(-c4ccc5[nH]ncc5c4)cnc23)CC1 [compound 26],22%,66%,0.7%,69%,48%,62%,46%,–
"CN1CCC(CNc2cc(Cl)nn3c(-c4cc5nc(Nc6ccccc6)[nH]c5cc4F)cnc23)CC1 [compound 31, 6-Chloro-3-(6-fluoro-2-(phenylamino)-1H-benzo[d]imidazol-5-yl)-N-((1-methylpiperidin-4-yl)methyl)imidazo[1,2-b]pyridazin-8-amine]",66%,2.7%,85%,100%,100%,100%,96%,97%
